Laboratory results taken from US4914104A, “Imidazo [1,5-a]pyrimidine derivatives and process for their preparation” (Kyorin Pharmaceutical Co., Ltd., priority 1984, dated 1990).
≈ marks a conversion by molar mass, not a printed value.

Columns and labels:
Experiment in all cases: Antifungal activity, standard agar dilution streak method
Format in all cases: cell-based
Candida albicans 3147 = conditions: read-out: Minimum inhibitory concentration
Procedure: (§1) The antifungal activity of the compound of the present invention was assayed by the standard agar dilution streak method against fungi.

[1] = test system: Candida albicans IFO-1388; conditions: IFO1388, read-out: Minimum inhibitory concentration
Procedure: as §1

[2] = test system: Candida albicans IFO-1594; conditions: IFO1594, read-out: Minimum inhibitory concentration
Procedure: as §1

Candida albicans KYF-602 = conditions: KYF602, read-out: Minimum inhibitory concentration
Procedure: as §1

[3] = test system: Candida albicans MTU-12124; conditions: MTU12124, read-out: Minimum inhibitory concentration
Procedure: as §1

[4] = test system: Candida stellatidea IFO-1398; conditions: IFO1398, read-out: Minimum inhibitory concentration
Procedure: as §1

[5] = test system: Trichophyton mentagrophytes MTU-19003; conditions: MTU19003, read-out: Minimum inhibitory concentration
Procedure: as §1

[6] = test system: Trichophyton mentagrophytes MTU-19005; conditions: MTU19005, read-out: Minimum inhibitory concentration
Procedure: as §1

[7] = test system: Aspergillus fumigatus MTU-06002; conditions: MTU06002, read-out: Minimum inhibitory concentration
Procedure: as §1

Microsporum canis 200100 = conditions: read-out: Minimum inhibitory concentration
Procedure: as §1

Compound | MIC (Candida albicans 3147) [µg/mL] | MIC [1] [µg/mL] | MIC [2] [µg/mL] | MIC (Candida albicans KYF-602) [µg/mL] | MIC [3] [µg/mL] | MIC [4] [µg/mL] | MIC [5] [µg/mL] | MIC [6] [µg/mL] | MIC [7] [µg/mL] | MIC (Microsporum canis 200100) [µg/mL]
Cc1ccc(-c2ncc3nc(Cl)cc(Cl)n23)s1 [Exp. 8] | 1.56 (≈ 5.49 µM) | 6.25 (≈ 22 µM) | 6.25 (≈ 22 µM) | 6.25 (≈ 22 µM) | 3.13 (≈ 11 µM) | 1.56 (≈ 5.49 µM) | 1.56 (≈ 5.49 µM) | 1.56 (≈ 5.49 µM) | – | –
Clc1cc(Cl)n2c(-c3ccccc3)nc(Cl)c2n1 [Exp. 13, 2,4,8-trichloro-6-phenylimidazo[1,5-a]pyrimidine] | 3.13 (≈ 10.5 µM) | 3.13 (≈ 10.5 µM) | 3.13 (≈ 10.5 µM) | 3.13 (≈ 10.5 µM) | 12.5 (≈ 41.9 µM) | 6.25 (≈ 20.9 µM) | 0.78 (≈ 2.61 µM) | 0.78 (≈ 2.61 µM) | 6.25 (≈ 20.9 µM) | 0.78 (≈ 2.61 µM)
Clc1cc(Cl)n2c(-c3ccc(Br)s3)ncc2n1 [Exp. 6] | 0.78 (≈ 2.23 µM) | 0.78 (≈ 2.23 µM) | 3.13 (≈ 8.97 µM) | 3.13 (≈ 8.97 µM) | 0.78 (≈ 2.23 µM) | 0.78 (≈ 2.23 µM) | 1.56 (≈ 4.47 µM) | 0.78 (≈ 2.23 µM) | 3.13 (≈ 8.97 µM) | 0.78 (≈ 2.23 µM)
Clc1ccc(Cc2nc(Cl)c3nc(Cl)cc(Cl)n23)cc1 [compound 18] | 1.56 (≈ 4.5 µM) | 0.2 (≈ 0.576 µM) | 3.13 (≈ 9.02 µM) | 25 (≈ 72 µM) | 6.25 (≈ 18 µM) | 0.78 (≈ 2.25 µM) | 3.13 (≈ 9.02 µM) | 1.56 (≈ 4.5 µM) | – | –
Clc1cc(Cl)n2c(-c3cccs3)ncc2n1 [Exp. 1, 2,4-dichloro-6-(2-thienyl)imidazo[1,5-a]pyrimidine] | 3.13 (≈ 11.6 µM) | 1.56 (≈ 5.77 µM) | 1.56 (≈ 5.77 µM) | 6.25 (≈ 23.1 µM) | 6.25 (≈ 23.1 µM) | 1.56 (≈ 5.77 µM) | 1.56 (≈ 5.77 µM) | 1.56 (≈ 5.77 µM) | 6.25 (≈ 23.1 µM) | 1.56 (≈ 5.77 µM)
Clc1cc(Cl)n2c(-c3ccc(Cl)s3)ncc2n1 [Exp. 7] | 0.2 (≈ 0.657 µM) | 0.78 (≈ 2.56 µM) | 0.2 (≈ 0.657 µM) | 0.39 (≈ 1.28 µM) | 1.56 (≈ 5.12 µM) | 0.78 (≈ 2.56 µM) | 0.78 (≈ 2.56 µM) | 0.78 (≈ 2.56 µM) | – | –
Clc1cc(Cl)n2c(-c3ccc(Br)cc3)nc(Cl)c2n1 [Exp. 17] | 1.56 (≈ 4.13 µM) | 0.78 (≈ 2.07 µM) | 1.56 (≈ 4.13 µM) | 6.25 (≈ 16.6 µM) | 3.13 (≈ 8.29 µM) | 0.39 (≈ 1.03 µM) | 3.13 (≈ 8.29 µM) | 3.13 (≈ 8.29 µM) | – | –
Clc1cc(Cl)n2c(Cc3cccs3)ncc2n1 [Exp. 4] | 3.13 (≈ 11 µM) | 6.25 (≈ 22 µM) | 3.13 (≈ 11 µM) | 6.25 (≈ 22 µM) | 6.25 (≈ 22 µM) | 3.13 (≈ 11 µM) | 1.56 (≈ 5.49 µM) | 1.56 (≈ 5.49 µM) | 12.5 (≈ 44 µM) | 1.56 (≈ 5.49 µM)
Clc1cc(Cl)n2c(-c3ccco3)ncc2n1 [Exp. 3] | 3.13 (≈ 12.3 µM) | 3.13 (≈ 12.3 µM) | 3.13 (≈ 12.3 µM) | 12.5 (≈ 49.2 µM) | 6.25 (≈ 24.6 µM) | 3.13 (≈ 12.3 µM) | 3.13 (≈ 12.3 µM) | 3.13 (≈ 12.3 µM) | 12.5 (≈ 49.2 µM) | 1.56 (≈ 6.14 µM)
Clc1cc(Cl)n2c(-c3ccsc3)ncc2n1 [Exp. 5] | 3.13 (≈ 11.6 µM) | 6.25 (≈ 23.1 µM) | 3.13 (≈ 11.6 µM) | 12.5 (≈ 46.3 µM) | 6.25 (≈ 23.1 µM) | 6.25 (≈ 23.1 µM) | 1.56 (≈ 5.77 µM) | 0.78 (≈ 2.89 µM) | 3.13 (≈ 11.6 µM) | 1.56 (≈ 5.77 µM)
Clc1cc(Cl)n2c(C3CCCCC3)nc(Cl)c2n1 [compound 19] | 0.78 (≈ 2.56 µM) | 0.2 (≈ 0.657 µM) | 1.56 (≈ 5.12 µM) | 1.56 (≈ 5.12 µM) | 1.56 (≈ 5.12 µM) | 1.56 (≈ 5.12 µM) | 3.13 (≈ 10.3 µM) | 1.56 (≈ 5.12 µM) | – | –
